Measurements from PubChem BioAssay AID1259407 (Chemical Carcinogenesis Research Information System (CCRIS), 2018).
Activity calls are given as the source filed them. The rule behind the calls is not given here.

Test system: CCRIS mutagenicity, Ames/micronucleus/aberration tests
Experiment: CCRIS mutagenicity studies
[1] = Test System: AMES SALMONELLA TYPHIMURIUM, Strain/Indicator: TA98, Metabolic Activation: NONE, Method: PREINCUBATION
[2] = Test System: AMES SALMONELLA TYPHIMURIUM, Strain/Indicator: TA100, Metabolic Activation: NONE, Method: PREINCUBATION
[3] = Test System: AMES SALMONELLA TYPHIMURIUM, Strain/Indicator: TA1535, Metabolic Activation: NONE, Method: PREINCUBATION
[4] = Test System: AMES SALMONELLA TYPHIMURIUM, Strain/Indicator: TA1537, Metabolic Activation: NONE, Method: PREINCUBATION

Measured: mutagenic call

N[C@@H](Cc1c[nH]c2ccccc12)C(=O)O
inactive: Test System: AMES SALMONELLA TYPHIMURIUM, Strain/Indicator: TA97, Metabolic Activation: HAMSTER, LIVER, S-9, AROCLOR 1254 (10 OR 30%), Method: PREINCUBATION inactive; negative | Test System: AMES SALMONELLA TYPHIMURIUM, Strain/Indicator: TA97, Metabolic Activation: NONE, Method: PREINCUBATION inactive; negative | Test System: AMES SALMONELLA TYPHIMURIUM, Strain/Indicator: TA97, Metabolic Activation: RAT, LIVER, S-9, AROCLOR 1254 (10 OR 30%), Method: PREINCUBATION inactive; negative | Test System: AMES SALMONELLA TYPHIMURIUM, Strain/Indicator: TA98, Metabolic Activation: HAMSTER, LIVER, S-9, AROCLOR 1254 (10 OR 30%), Method: PREINCUBATION inactive; negative | [1] inactive; negative | Test System: AMES SALMONELLA TYPHIMURIUM, Strain/Indicator: TA98, Metabolic Activation: RAT, LIVER, S-9, AROCLOR 1254 (10 OR 30%), Method: PREINCUBATION inactive; negative | Test System: AMES SALMONELLA TYPHIMURIUM, Strain/Indicator: TA100, Metabolic Activation: HAMSTER, LIVER, S-9, AROCLOR 1254 (10 OR 30%), Method: PREINCUBATION inactive; negative | [2] inactive; negative | Test System: AMES SALMONELLA TYPHIMURIUM, Strain/Indicator: TA100, Metabolic Activation: RAT, LIVER, S-9, AROCLOR 1254 (10 OR 30%), Method: PREINCUBATION inactive; negative | Test System: AMES SALMONELLA TYPHIMURIUM, Strain/Indicator: TA1535, Metabolic Activation: HAMSTER, LIVER, S-9, AROCLOR 1254 (10 OR 30%), Method: PREINCUBATION inactive; negative | [3] inactive; negative | Test System: AMES SALMONELLA TYPHIMURIUM, Strain/Indicator: TA1535, Metabolic Activation: RAT, LIVER, S-9, AROCLOR 1254 (10 OR 30%), Method: PREINCUBATION inactive; negative | Test System: AMES SALMONELLA TYPHIMURIUM, Strain/Indicator: TA1537, Metabolic Activation: HAMSTER, LIVER, S-9, AROCLOR 1254 (30%), Method: PREINCUBATION inactive; negative | [4] inactive; negative | Test System: AMES SALMONELLA TYPHIMURIUM, Strain/Indicator: TA1537, Metabolic Activation: RAT, LIVER, S-9, AROCLOR 1254 (30%), Method: PREINCUBATION inactive; negative

Cc1cc(O)c2c(c1O)C(=O)c1c(-c3ccc(O)c4c3C(=O)c3c(O)c(C)cc(O)c3C4=O)ccc(O)c1C2=O
inactive: Test System: UDS RODENT HEPATOCYTES, Strain/Indicator: THY INCORP, Metabolic Activation: NONE, Method: AUTORADIOGRAPHY inactive; negative

CC1(C)C(=O)N(Cl)C(=O)N1Cl
inactive: End Point: IN VITRO CHROMOSOMAL ABERRATIONS, Test System: CHINESE HAMSTER OVARY CELLS, Metabolic Activation: NONE inactive; negative | End Point: IN VITRO CHROMOSOMAL ABERRATIONS, Test System: CHINESE HAMSTER OVARY CELLS, Metabolic Activation: RAT, LIVER, S-9, AROCLOR 1254 inactive; negative | Test System: AMES SALMONELLA TYPHIMURIUM, Strain/Indicator: TA98, Metabolic Activation: HAMSTER, LIVER, S-9, AROCLOR 1254, Method: PREINCUBATION inactive; negative | [1] inactive; negative | Test System: AMES SALMONELLA TYPHIMURIUM, Strain/Indicator: TA98, Metabolic Activation: RAT, LIVER, S-9, AROCLOR 1254, Method: PREINCUBATION inactive; negative | Test System: AMES SALMONELLA TYPHIMURIUM, Strain/Indicator: TA100, Metabolic Activation: HAMSTER, LIVER, S-9, AROCLOR 1254, Method: PREINCUBATION inactive; negative | [2] inactive; negative | Test System: AMES SALMONELLA TYPHIMURIUM, Strain/Indicator: TA100, Metabolic Activation: RAT, LIVER, S-9, AROCLOR 1254, Method: PREINCUBATION inactive; negative | Test System: AMES SALMONELLA TYPHIMURIUM, Strain/Indicator: TA1535, Metabolic Activation: HAMSTER, LIVER, S-9, AROCLOR 1254, Method: PREINCUBATION inactive; negative | [3] inactive; negative | Test System: AMES SALMONELLA TYPHIMURIUM, Strain/Indicator: TA1535, Metabolic Activation: RAT, LIVER, S-9, AROCLOR 1254, Method: PREINCUBATION inactive; negative | Test System: AMES SALMONELLA TYPHIMURIUM, Strain/Indicator: TA1537, Metabolic Activation: HAMSTER, LIVER, S-9, AROCLOR 1254, Method: PREINCUBATION inactive; negative | [4] inactive; negative | Test System: AMES SALMONELLA TYPHIMURIUM, Strain/Indicator: TA1537, Metabolic Activation: RAT, LIVER, S-9, AROCLOR 1254, Method: PREINCUBATION inactive; negative

CCN(CC)Cc1cc(Nc2ccnc3cc(Cl)ccc23)ccc1O
inactive: Test System: AMES SALMONELLA TYPHIMURIUM, Strain/Indicator: TA97A, Metabolic Activation: NONE, Method: STANDARD PLATE inactive; negative | Test System: AMES SALMONELLA TYPHIMURIUM, Strain/Indicator: TA97A, Metabolic Activation: RAT LIVER S-9, PHENOBARBITAL, Method: STANDARD PLATE inactive; negative | Test System: AMES SALMONELLA TYPHIMURIUM, Strain/Indicator: TA100, Metabolic Activation: NONE, Method: STANDARD PLATE inactive; negative | Test System: AMES SALMONELLA TYPHIMURIUM, Strain/Indicator: TA100, Metabolic Activation: RAT LIVER S-9, PHENOBARBITAL, Method: STANDARD PLATE inactive; negative | Test System: AMES SALMONELLA TYPHIMURIUM, Strain/Indicator: TA102, Metabolic Activation: NONE, Method: STANDARD PLATE inactive; negative | Test System: AMES SALMONELLA TYPHIMURIUM, Strain/Indicator: TA102, Metabolic Activation: RAT LIVER S-9, PHENOBARBITAL, Method: STANDARD PLATE inactive; negative | Test System: AMES SALMONELLA TYPHIMURIUM, Strain/Indicator: TA104, Metabolic Activation: NONE, Method: STANDARD PLATE inactive; negative | Test System: AMES SALMONELLA TYPHIMURIUM, Strain/Indicator: TA104, Metabolic Activation: RAT LIVER S-9, PHENOBARBITAL, Method: STANDARD PLATE inactive; negative
